Test results as given in US10093629B2, “Heterocyclic compounds and their use as retinoid-related orphan receptor (ROR) gamma-T inhibitors” (Takeda Pharmaceutical Company Limited, priority 2014, dated 2018).

Columns and labels:
mouse EAE model = assay: Mouse EAE model; format: in vivo; settings: 3 mg/kg oral; C57BL/6J mice; integration value of clinical score for 28 days; versus the negative control group
Method: Effect in a Mouse EAE Model
. C57BL/6J mice (10 weeks old, female, Charles River Japan) were grouped based on the body weight, and the MOG emulsion was intradermally administered at two point of the joint of dorsal hindlimb so that the dose was 100 μL/site, 200 μL/mouse. In addition, Pertussis toxin (Merck) was intraperitoneally administered twice on the sensitization day and 2 days thereafter in the dose of 400 ng/200 μL/mouse. The body weight was measured twice a week before onset and everyday (excluding holiday) after onset from the sensitization day. The clinical score was evaluated by the following standard scores of 0 to 5 (0: normal, 0.5: partial paralysis of tail, 1: complete paralysis of tail, 2: partial paralysis of hindlimb, 3: paralysis of lower body, 4: partial paralysis of forelimb, 5: paralysis of both forelimbs or death) by observation everyday (excluding holiday) after the beginning of onset.
The percent inhibition of the clinical score of the test compound administration group relative to that of the control group was calculated using integration value of the clinical score for 28 days.
The results (percent inhibition of clinical score with oral administration of the test compound) measured by the above-mentioned method are shown in Table 12.

IL-17A gene expression = assay: Effect on IL-23-induced cytokine expression in mice; format: in vivo, mouse; settings: 3 mg/kg oral, 30 min before and 8 hr after IL-23; ear of Balb/c mice; versus the negative control group
[1] = test system: T cell-transferred mouse colitis model; assay: T cell-transferred mouse colitis model; format: in vivo; settings: 3 mg/kg oral twice daily; SCID mice, 21 days after cell transfer; versus the negative control group
Description: Effect in a T Cell-Transferred Mouse Colitis Model
Balb/c mice (Charles River Japan, female, 8 weeks old) were euthanized, and the spleens were resected, mashed in mesh, and passed through cell strainer to prepare a suspension of splenic cells. The mononuclear cell fraction in the splenic cells was isolated by density-gradient centrifugation, and subjected to hemolysis treatment with ammonium chloride buffer solution (Immuno-Biological Laboratories, Co., Ltd.). The naive T-cells were purified using CD4+CD62L+ T Cell Isolation Kit II (Miltenyi Biotec). The naive T-cells (2×10^5 cells/mouse) were intravenously transferred into SCIDmice (CLEA Japan, female, 8 weeks old). The compound was suspended in 0.5% methyl cellulose, and the suspension was orally administered twice daily on consecutive days from the same evening of the cell transfer. The mice were blinded 20 days after the cell transfer, and the symptom of the stool on floorcloth under blind was evaluated by scores of 1 to 4 (1: normal, 2: loose stool, 3: diarrhea (formed), 4: diarrhea (unformed)) 21 days after the cell transfer. […] The large intestine was washed with saline, and the weight was measured.
The results (percent inhibition of intestinal tract weight and diarrhea score with oral administration of the test compound) measured by the above-mentioned method are shown in Table 11.

[2] = test system: IL-17 production in human blood; assay: Effect on IL-17 production in human blood; format: cell-based; settings: 72 h; 10 μM test compound; human peripheral blood, IL-23 and Dynabeads stimulation, 3 days; read-out: percent inhibition at 10 μM (IL-17 production)
Method in brief: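 Heparinized healthy-donor whole blood pre-incubated with compound 30 min at 37° C, then stimulated with IL-23 (added as 100 ng/mL solution) plus Dynabeads Human for 3 days at 37° C. Supernatant IL-17 measured by ELISA; values given as percent inhibition at 10 μM compound.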

[3] = test system: IL-23-induced mouse psoriasis model; assay: IL-23-induced mouse psoriasis model; format: in vivo; settings: 3 mg/kg oral twice daily, Balb/c mice, versus the negative control group
Method: Effect in an IL-23-Induced Mouse Psoriasis Model
Mouse IL-23 (500 ng/15 μL, R&D) or PBS (15 μL, negative control group) was administered intradermally in the ear of Balb/c mice (Charles River Japan, male, 7 weeks old) 5 times every other days. Seven hr after IL-23 administration at 8 days after the initial administration (final administration), the mice were anesthetized with isoflurane, and ear thickness was measured with calipers. After the ear thickness was measured, the ear was resected, tissue 8 mm in diameter was punched from an area centering on the IL-23 injection site, and the tissue was weighed. The punched ear tissue was cut in half, and one half was immersion-fixed in 10% neutral buffer formalin solution for use in histopathological evaluation. The other half was immersed in RNAlater (QIAGEN) for at least 18 hr for use in an evaluation of the IL-17A mRNA expression level. The test compound was suspended in 0.5% methylcellulose and administered orally twice daily on consecutive days from 30 min before the initial IL-23 administration to 30 min before the final IL-23 administration.
The change in ear thickness in this model was evaluated by calculating the difference in measured thickness between before IL-23 administration and 7 hr after the final IL-23 administration. In addition, the formalin-fixed tissue was embedded and sectioned, then stained with hematoxylin-eosin. The degree of acanthosis was then evaluated qualitatively by microscopy (classified with a score of 0 to 4). RNA extraction from the ear tissue and quantitative PCR were performed as follows. As described above, ear tissue treated with RNAlater (QIAGEN) was homogenized in 350 μL of RLT buffer (RNeasy mini kit, QIAGEN) and treated (55° C., 10 min) with Proteinase K (QIAGEN). Total RNA was then extracted according to the RNeasy mini kit protocol. The RNA thus obtained was reverse transcribed into cDNA using the High-Capacity RNA-to-cDNA kit (Applied Biosystems), and the expression of each gene was measured by real-time PCR (Viia7™, Applied Biosystems). The PCR buffer used was TaqMan Fast Advanced Master Mix (Applied Biosystems), and TaqMan Gene Expression Assays (Applied Biosystems) Mm00439618_m1 (IL-17A) and 4352341E (β-actin) were used to detect the genes. The IL-17A gene expression level was normalized to the β-actin gene expression level, and the percent inhibition of IL-17A gene expression with the test compound was then calculated.
The results (percent inhibition of ear thickness, acanthosis score and IL-17A gene expression with oral administration of the test compound) measured by the above-mentioned method are shown in Table 10.

COc1ccc2c(n1)CCN(C(=O)[C@H]1C[C@@H](CC(=O)O)C1)[C@H]2C(=O)Nc1cc(F)c2c(c1)CCC2(C)C [Example 15, (cis-3-(((5R)-5-((7-fluoro-1,1-dimethyl-2,3-dihydro-1H-inden-5-yl)carbamoyl)-2-methoxy-7,8-dihydro-1,6-naphthyridin-6(5H)-yl)carbonyl)cyclobutyl)acetic acid]
percent inhibition of clinical score (mouse EAE model): 64% | percent inhibition of IL-17A gene expression (IL-17A gene expression): 99% | percent inhibition of diarrhea score [1]: 81% | percent inhibition of intestinal tract weight [1]: 58% | inhibition at 10 µM [2]: 94% | percent inhibition of acanthosis score [3]: 53% | percent inhibition of ear thickness [3]: 61% | percent inhibition of IL-17A expression ([3]; ear tissue): 93%
